The test system of this assay is human colon adenocarcinoma cell line LS174T. Nature of the assay: Subcutaneous LS174T xenograft model, tumor growth inhibition. Set-up: species or system BALB/c nude mice. The note with it: mouse, in vivo. On the procedure:
Example 2 was repeated with the anticancer agent fluorouracil (5-FU) and utilizing a different xen-ograft model involving the human colon adenocarcinoma cell line LS174T.
The suboptimal dose of 5-FU was determined with 75 mg/kg. The anticancer agent was intraperitoneally administered at the suboptimal dose once a week (days 11, 18 and 25 after inoculation). The emulsions were administered intravenously five times a week (Mo-Fr) at a dose of 2 ml/kg.
The results were statistically analyzed.

The compound `O=c1[nH]cc(F)c(=O)[nH]1` [Composition 5-FU, fluorouracil] yielded a Suboptimal dose of 75 mg/kg.
